In ChEMBL document CHEMBL2073872, “Rat multispecific organic anion transporter 1 (rOAT1) transports zidovudine, acyclovir, and other antiviral nucleoside analogs” (J Pharmacol Exp Ther, 2000):

T1: Solute carrier family 22 member 6 (Rattus norvegicus, UniProt O35956)
T1 sequence (O35956 whole entry): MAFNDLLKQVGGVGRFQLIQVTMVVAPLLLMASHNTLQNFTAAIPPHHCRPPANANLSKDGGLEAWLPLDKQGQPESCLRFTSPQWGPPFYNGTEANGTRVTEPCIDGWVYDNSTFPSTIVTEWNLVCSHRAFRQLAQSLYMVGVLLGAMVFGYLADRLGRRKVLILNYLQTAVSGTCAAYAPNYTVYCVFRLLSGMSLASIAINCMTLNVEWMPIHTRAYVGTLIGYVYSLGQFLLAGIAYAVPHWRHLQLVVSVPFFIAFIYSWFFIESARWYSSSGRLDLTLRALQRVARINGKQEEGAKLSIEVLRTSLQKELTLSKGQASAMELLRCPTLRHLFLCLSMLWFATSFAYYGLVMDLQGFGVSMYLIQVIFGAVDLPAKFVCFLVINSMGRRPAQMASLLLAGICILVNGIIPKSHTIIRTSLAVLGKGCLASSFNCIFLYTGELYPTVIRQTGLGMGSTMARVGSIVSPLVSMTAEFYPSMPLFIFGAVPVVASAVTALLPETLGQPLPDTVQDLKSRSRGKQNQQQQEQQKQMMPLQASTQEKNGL

B1: Solute carrier family 22 member 6 (Rattus norvegicus) (protein)
chain: T1 sequence (O35956 whole entry)

Experiments:
[1] = target: T1, Solute carrier family 22 member 6; experiment: (§1) TP_TRANSPORTER: uptake in Xenopus laevis oocytes; assay type: functional, cell-based, Oocyte; settings: for Activity: oocyte
[2] = target: T1, Solute carrier family 22 member 6; experiment: TP_TRANSPORTER: inhibition of PAH uptake (PAH: 2 uM, Trifluridine: 1000 uM) in Xenopus laevis oocytes; assay type: functional, cell-based; settings: oocyte
[3] = target: T1, Solute carrier family 22 member 6; experiment: TP_TRANSPORTER: inhibition of PAH uptake (PAH: 2 uM, Foscarnet: 1000 uM) in Xenopus laevis oocytes; assay type: functional, cell-based; settings: oocyte
[4] = target: T1, Solute carrier family 22 member 6; experiment: TP_TRANSPORTER: inhibition of PAH uptake (PAH: 2 uM, ACV: 1000 uM) in Xenopus laevis oocytes; assay type: functional, cell-based; settings: oocyte
[5] = substrate: Nc1nc2c(ncn2COCCO)c(=O)[nH]1; experiment: as §1; assay type: functional, cell-based, Oocyte

| Molecule | Activity [1] | further results |
| --- | --- | --- |
| O=c1[nH]cnc2c1ncn2[C@H]1CC[C@@H](CO)O1 [DIDANOSINE] | substrate [+] | – |
| O=c1[nH]c(=O)n([C@H]2C[C@H](O)[C@@H](CO)O2)cc1C(F)(F)F [TRIFLURIDINE] | substrate [+] | Activity [2]: inhibitor [(at a rough estimate) 50 % of control] |
| Cc1cn([C@H]2C[C@H](N=[N+]=[N-])[C@@H](CO)O2)c(=O)[nH]c1=O [ZIDOVUDINE] | – | Km ([1]; Xenopus laevis oocytes): 68 µM |
| O=C(O)P(=O)(O)O [FOSCARNET] | is not a substrate [-] | Activity [3]: is not an inhibitor [-] |
| Nc1nc2c(ncn2COCCO)c(=O)[nH]1 [ACYCLOVIR] | – | Activity [4]: inhibitor [(at a rough estimate) 50 % of control] |
| Nc1ccn([C@H]2CC[C@@H](CO)O2)c(=O)n1 [ZALCITABINE] | substrate [+] | – |
| Cc1cn([C@H]2C=C[C@@H](CO)O2)c(=O)[nH]c1=O [STAVUDINE] | substrate [+] | – |
| Nc1ccn([C@@H]2CS[C@H](CO)O2)c(=O)n1 [LAMIVUDINE] | substrate [+] | – |
| B1 | – | Km [5]: 242 µM |
